Earlier results, collected in PMC8537988, “Re-Use of Caco-2 Monolayers in Permeability Assays—Validation Regarding Cell Monolayer Integrity” (Pharmaceutics, 2021).

Key:
[1] = tested on: transporters in the membrane (influx or efflux); parameters: method as in PMID 9213361; conditions: cited from earlier work
Caco-2 monolayers = tested on: Caco-2 monolayers; parameters: method as in PMID 34247356; conditions: day 23 post-seeding, 90 min sampling interval; cited from earlier work

In the case of “Lucifer yellow CH di-potassium salt [LY]”, the “substrate of transporters in the membrane (influx or efflux)” value [1] is listed as “not a substrate of transporters in the membrane (influx or efflux)” and the “amount of LY that permeates through Caco-2 monolayers” value (Caco-2 monolayers) is listed as 0.27%.
